{"source": "patent US4309362A", "about": "“Process for the optical resolution of DL-p-hydroxy-phenylglycine” (Tanabe Seiyaku Co., Ltd., priority 1976, dated 1982)", "key": {"[1]": {"assay": "physchem", "settings": "0.5 m benzenesulfonic acid, organic solvent or mixture, aqueous 0.5 M benzenesulfonic acid solution"}, "[2]": {"assay": "physchem", "format": "physicochemical", "settings": "water", "method": "DL-, D- or L-p-hydroxyphenylglycine sulfosalicylate is prepared in the same manner as described in Example 1.\np-hydroxyphenyl- Specific Solubility (g/100\nMelting rotation ml of water)"}, "[3]": {"assay": "Solubility of p-hydroxyphenylglycine p-ethylbenzenesulfonate in aqueous 3 M p-ethylbenzenesulfonic acid (Table 2)", "format": "physicochemical", "settings": "aqueous 3 M p-ethylbenzenesulfonic acid solution", "from_the_text": "*an aqueous 3 M pethylbenzenesulfonate acid solution"}, "[4]": {"assay": "Solubility of p-hydroxyphenylglycine o-toluenesulfonate in water (Table 3)", "format": "physicochemical"}}, "data": [{"smiles": "NC(C(=O)O)c1ccc(O)cc1.O=S(=O)(O)c1ccccc1", "note": "(racemic) [DL-p-hydroxyphenylglycine benzenesulfonate]", "values": [{"measurement": "solubility", "setting": "[1]; 20° C.", "value": 154, "unit": "mg/mL"}, {"measurement": "solubility", "setting": "[1]; 30° C.", "value": 241, "unit": "mg/mL"}, {"measurement": "solubility", "setting": "[1]; 40° C.", "value": 350, "unit": "mg/mL"}]}, {"smiles": "N[C@@H](C(=O)O)c1ccc(O)cc1", "note": "(single isomer, unassigned; enantiomer d) [p-hydroxyphenylglycine sulfosalicylate monohydrate, D-enantiomer, D-p-hydroxyphenylglycine sulfosalicylate]", "values": [{"measurement": "solubility", "setting": "[2]", "value": "14.0 g/100 ml of water"}, {"measurement": "solubility", "setting": "[2]; Solubility", "value": 100, "unit": "mg/mL"}]}, {"smiles": "NC(C(=O)O)c1ccc(O)cc1", "note": "(racemic) [DL-p-hydroxyphenylglycine sulfosalicylate]", "values": [{"measurement": "solubility", "setting": "[2]", "value": "26.3 g/100 ml of water"}, {"measurement": "solubility", "setting": "[2]; Solubility", "value": 182, "unit": "mg/mL"}]}, {"smiles": "N[C@H](C(=O)O)c1ccc(O)cc1", "note": "[p-hydroxyphenylglycine p-ethylbenzenesulfonate, L-enantiomer, L-p-hydroxyphenylglycine p-ethylbenzenesulfonate]", "values": [{"measurement": "solubility", "setting": "[3]; 20° C.", "value": "10.3 g/100 ml of solvent"}, {"measurement": "solubility", "setting": "[3]; 30° C.", "value": "14.2 g/100 ml of solvent"}, {"measurement": "solubility", "setting": "[3]; 40° C.", "value": "21.8 g/100 ml of solvent"}]}, {"smiles": "N[C@H](C(=O)O)c1ccc(O)cc1.O=S(=O)(O)c1ccccc1", "note": "[p-hydroxyphenylglycine benzenesulfonate, L-enantiomer, L-p-hydroxyphenylglycine benzenesulfonate]", "values": [{"measurement": "solubility", "setting": "[1]; 20° C.", "value": 77, "unit": "mg/mL"}, {"measurement": "solubility", "setting": "[1]; 30° C.", "value": 110, "unit": "mg/mL"}, {"measurement": "solubility", "setting": "[1]; 40° C.", "value": 167, "unit": "mg/mL"}]}, {"smiles": "N[C@H](C(=O)O)c1ccc(O)cc1", "note": "[p-hydroxyphenylglycine o-toluenesulfonate, L-enantiomer, L-p-hydroxyphenylglycine o-toluenesulfonate]", "values": [{"measurement": "solubility", "setting": "[4]; 20° C.", "value": 77, "unit": "mg/mL"}, {"measurement": "solubility", "setting": "[4]; 30° C.", "value": 96, "unit": "mg/mL"}, {"measurement": "solubility", "setting": "[4]; 40° C.", "value": 122, "unit": "mg/mL"}]}, {"smiles": "NC(C(=O)O)c1ccc(O)cc1", "note": "(racemic) [DL-p-hydroxyphenylglycine o-toluenesulfonate]", "values": [{"measurement": "solubility", "setting": "[4]; 20° C.", "value": 123, "unit": "mg/mL"}, {"measurement": "solubility", "setting": "[4]; 30° C.", "value": 160, "unit": "mg/mL"}, {"measurement": "solubility", "setting": "[4]; 40° C.", "value": 210, "unit": "mg/mL"}]}, {"smiles": "N[C@@H](C(=O)O)c1ccc(O)cc1.O=S(=O)(O)c1ccccc1", "note": "[p-hydroxyphenylglycine benzenesulfonate, D-enantiomer, D-p-hydroxyphenylglycine benzenesulfonate]", "values": [{"measurement": "solubility", "setting": "[1]; 20° C.", "value": 77, "unit": "mg/mL"}, {"measurement": "solubility", "setting": "[1]; 30° C.", "value": 110, "unit": "mg/mL"}, {"measurement": "solubility", "setting": "[1]; 40° C.", "value": 167, "unit": "mg/mL"}]}, {"smiles": "N[C@@H](C(=O)O)c1ccc(O)cc1", "note": "(single isomer, unassigned; enantiomer d) [p-hydroxyphenylglycine p-ethylbenzenesulfonate, D-enantiomer, D-p-hydroxyphenylglycine p-ethylbenzenesulfonate]", "values": [{"measurement": "solubility", "setting": "[3]; 20° C.", "value": "10.3 g/100 ml of solvent"}, {"measurement": "solubility", "setting": "[3]; 30° C.", "value": "14.2 g/100 ml of solvent"}, {"measurement": "solubility", "setting": "[3]; 40° C.", "value": "21.8 g/100 ml of solvent"}]}, {"smiles": "NC(C(=O)O)c1ccc(O)cc1", "note": "(racemic) [DL-p-hydroxyphenylglycine p-ethylbenzenesulfonate]", "values": [{"measurement": "solubility", "setting": "[3]; 20° C.", "value": "19.3 g/100 ml of solvent"}, {"measurement": "solubility", "setting": "[3]; 30° C.", "value": "33.2 g/100 ml of solvent"}, {"measurement": "solubility", "setting": "[3]; 40° C.", "value": "52.1 g/100 ml of solvent"}]}, {"smiles": "N[C@@H](C(=O)O)c1ccc(O)cc1", "note": "[p-hydroxyphenylglycine o-toluenesulfonate, D-enantiomer, D-p-hydroxyphenylglycine o-toluenesulfonate]", "values": [{"measurement": "solubility", "setting": "[4]; 20° C.", "value": 77, "unit": "mg/mL"}, {"measurement": "solubility", "setting": "[4]; 30° C.", "value": 96, "unit": "mg/mL"}, {"measurement": "solubility", "setting": "[4]; 40° C.", "value": 122, "unit": "mg/mL"}]}, {"smiles": "N[C@H](C(=O)O)c1ccc(O)cc1", "note": "[p-hydroxyphenylglycine sulfosalicylate monohydrate, L-enantiomer, L-p-hydroxyphenylglycine sulfosalicylate]", "values": [{"measurement": "solubility", "setting": "[2]", "value": "14.0 g/100 ml of water"}, {"measurement": "solubility", "setting": "[2]; Solubility", "value": 100, "unit": "mg/mL"}]}]}
